# Laboratory results reported in patent publication US10364244B2, “Crystal form of pyrroloquinoline quinone sodium salt and preparation method and use thereof” (Zhejiang Hisun Pharmaceutical Co., Ltd., priority 2015, dated 2019).
# Experiments:
# [1] = Hygroscopicity test (25° C., humidity 75%, 24 h); type: physicochemical; conditions: for Rate of moisture absorption: 1 g sample, temperature of 25° C., humidity of 75%; for hygroscopicity (conclusion in words from the hygroscopicity test): 25° C., humidity 75%
# Description: Hygroscopicity test. Test Conditions: watch glasses were placed in the environment at the temperature of 25° C. and the humidity of 75% for 24 h, then for each of the following samples, 1 g was weighed, and the weighted samples were quickly placed in the environment at the temperature of 25° C. and the humidity of 75% for 24 h to absorb moisture sufficiently.
# [2] = at 65%-85% RH; cited from earlier work
SMILES,Rate of moisture absorption ([1]; disodium salt),hygroscopicity (conclusion in words from the hygroscopicity test) ([1]; disodium salt),other results
"O=C(O)c1cc(C(=O)O)c2c(n1)C(=O)C(=O)c1cc(C(=O)O)[nH]c1-2.[Na] [Crystal form IV, pyrroloquinoline quinone monosodium salt]",,,Rate of moisture absorption [1]: 0%; hygroscopicity (conclusion in words from the hygroscopicity test) [1]: not hygroscopic
"O=C(O)c1cc(C(=O)O)c2c(n1)C(=O)C(=O)c1cc(C(=O)O)[nH]c1-2.[Na].[Na] [Crystal form II, pyrroloquinoline quinone disodium salt]",0.30%,,
"O=C(O)c1cc(C(=O)O)c2c(n1)C(=O)C(=O)c1cc(C(=O)O)[nH]c1-2.[Na].[Na] [Crystal form of the disodium salt in CN201080031945] [pyrroloquinoline quinone disodium salt, reference compound]",0.85%,,"hygroscopicity (conclusion in words from the hygroscopicity test) ([1]; listed as crystal form in CN201080031945, disodium salt): strongest hygroscopicity"
"O=C(O)c1cc(C(=O)O)c2c(n1)C(=O)C(=O)c1cc(C(=O)O)[nH]c1-2.[Na] [crystal form A in CN201210452297.6, pyrroloquinoline quinone sodium salt]",,,hygroscopicity [2]: less than 3%

# Now from value to compound, other results behind:
Rate of moisture absorption ([1]; disodium salt),hygroscopicity (conclusion in words from the hygroscopicity test) ([1]; disodium salt),SMILES,other results
0%,not hygroscopic,"O=C(O)c1cc(C(=O)O)c2c(n1)C(=O)C(=O)c1cc(C(=O)O)[nH]c1-2.[Na].[Na] [Crystal form III, pyrroloquinoline quinone disodium salt]",
0%,not hygroscopic,"O=C(O)c1cc(C(=O)O)c2c(n1)C(=O)C(=O)c1cc(C(=O)O)[nH]c1-2.[Na].[Na] [Crystal form I, pyrroloquinoline quinone disodium salt]",
